Results from patent EP4640052A1 (BASF SE, priority 2024, dated 2025).
Read-outs that look alike come from different tables or passages of the source.

Assays:
[1] = tested on: Sclerotinia sclerotiorum (SCLESC); experiment: microbe, parasite or virus in culture; assay type: cell-based; details: Sclerotinia sclerotiorum, 168 h, read-out: Observed efficacy
[2] = tested on: Pyrenophora teres (PYRNTE), Qol resistant (F129L); experiment: microbe, parasite or virus in culture; assay type: cell-based; details: Pyrenophora teres, 168 h, read-out: Observed efficacy
[3] = tested on: Pyricularia oryzae (PYRIOR); experiment: microbe, parasite or virus in culture; assay type: cell-based; details: Pyricularia oryzae, 168 h, read-out: Observed efficacy
[4] = tested on: Septoria tritici (SEPTTR); experiment: microbe, parasite or virus in culture; assay type: cell-based; details: Zymoseptoria tritici, 168 h, read-out: Observed efficacy
Phakopsora pachyrhizi [5] = details: in vivo
Phakopsora pachyrhizi [6] = experiment: Green house use example 13: curative control of soybean rust on soybeans (PHAKPA F129L K4); assay type: in vivo
[7] = tested on: Blumeria graminis f. sp. tritici; details: in vivo
[8] = tested on: Blumeria graminis f. sp. tritici; experiment: Green house use example 11: control of powdery mildew on wheat, sprayed 2 days after inoculation (ERYSGT K2); assay type: in vivo; details: G143A strain, single active
Monilinia sp. (MONISP) = experiment: microbe, parasite or virus in culture; assay type: cell-based; details: Monilinia, 168 h, read-out: Observed efficacy
[9] = tested on: Cercospora sojina (CERCSO); assay type: cell-based
[10] = tested on: Alternaria solani (ALTESO); experiment: microbe, parasite or virus in culture; assay type: cell-based; details: Alternaria solani, 168 h, read-out: Observed efficacy

CC(Cc1ccc(C(C)(C)C)cc1)CN1C[C@@H](C)O[C@@H](C)C1 (stereo partly shown) [fenpropimorph, reference compound]
inhibition of growth at 1 ppm [1]: 39% | inhibition of growth at 4 ppm [1]: 65% | inhibition of growth at 1 ppm [2]: 33% | inhibition of growth at 0.016 ppm [3]: 0% | inhibition of growth at 0.063 ppm [4]: 0% | inhibition of growth at 0.25 ppm [4]: 0% | inhibition of growth at 1 ppm [4]: 44% | Observed efficacy (Phakopsora pachyrhizi [5]): 0 | Observed efficacy (Phakopsora pachyrhizi [6]; Trial 1, single compound, 4 ppm): 8 | Observed efficacy (Phakopsora pachyrhizi [6]; Trial 1, single compound, 12 ppm): 13 | Observed efficacy (Phakopsora pachyrhizi [6]; Trial 2, single compound, 4 ppm): 6 | Observed efficacy (Phakopsora pachyrhizi [6]; Trial 2, single compound, 16 ppm): 11 | Observed efficacy [7]: 16 | Observed efficacy ([8]; 16 ppm): 32 | Observed efficacy ([8]; 63 ppm): 35 | inhibition of growth at 0.016 ppm (Monilinia sp. (MONISP)): 2% | Observed efficacy [9]: 3% | inhibition of growth at 0.25 ppm [10]: 18% | inhibition of growth at 1 ppm [10]: 61%
